Test results as given in patent US11377451B2, “Compositions and methods for treating cancer” (The Regents of the University of California, priority 2019, dated 2022).

Key:
HK301 = experiment: GI50 assay (Cell Titer Glo proliferation, 3 days); type: cell-based, human; conditions: Homo sapiens, 72 h; HK301, 3 days; read-out: HK301 GI50
[1] = Protein binding (fraction unbound in blood and brain)
GBM39 = experiment: GI50 assay (Cell Titer Glo proliferation, 3 days); type: cell-based, human; conditions: Homo sapiens, 72 h; GBM39, 3 days
[2] = Pharmacokinetic / brain penetration studies in mice; type: in vivo; conditions: male, CD-1, mouse, brain / plasma; non-tumor bearing mice
Procedure: Pharmacokinetic studies were performed on male CD-1 mice aged 8-10 weeks. Mice were dosed as indicated in duplicates. At the time points, whole blood was obtained by retro-orbital bleeding and brain tissue was harvested. Blood samples were centrifuged to obtain plasma and brain tissue was washed and homogenized. Samples were extracted with acetonitrile and supernatant was dried using a speed-vac. Dried samples were solubilized in 50:50:0.1 acetonitrile:water:formic acid and quantified on an Agilent 6400 series Triple Quadrupole LC/MS.
Disclosed in table 5 Brain to plasma percentages and unbound ratios of drugs in brain to plasma of indicated drugs in non-tumor bearing mice

Row | Structure (SMILES) | GI50 (HK301) [µM] | GI50 (GBM39) [µM] | other results
1 | Fc1c(Br)cccc1Nc1ncnc2cc3c(cc12)OC(CN1CCOCC1)CO3 (racemic) [JGK063, (±)-N-(3-Bromo-2-fluorophenyl)-7-[(morpholin-4-yl)methyl]-7,8-dihydro[1,4]dioxino[2,3-g]quinazolin-4-amine] | 0.816 | 3.43 | Bound (blood) ([1]; blood): 91.96%; fraction unbound ([1]; blood, Fu (blood)): 0.0804; Bound (brain) ([1]; brain): 96.22%; fraction unbound ([1]; brain, Fu (brain)): 0.0378; Kp [2]: 0.725
2 | Fc1c(Br)cccc1Nc1ncnc2cc3c(cc12)OCC(CCN1CCCCC1)O3 (racemic) [JGK090, (±)-N-(3-Bromo-2-fluorophenyl)-8-[2-(piperidin-1-yl)ethyl]-7,8-dihydro[1,4]dioxino[2,3-g]quinazolin-4-amine] | 2.39 | 4.33 | 
3 | C#Cc1cccc(N(C(=O)OC(C)(C)C)C2=NC(OC)N(C(=O)OC(C)(C)C)c3cc(OCCOC)c(OCCOC)cc32)c1 (stereo not drawn) [JGK001] | 2.21 | 19.7 | 
4 | C#Cc1cccc(N(C(C)=O)c2ncnc3cc(OCCOC)c(OCCOC)cc23)c1 [JGK002] | 5.45 | 19.8 | 
5 | C#Cc1cccc(N(C(=O)OC(C)(C)C)C2=NC(OCC)N(C(=O)OC(C)(C)C)c3cc(OCCOC)c(OCCOC)cc32)c1 (stereo not drawn) [JGK003] | 1.13 | 23.1 | 
6 | O=C(Oc1cc2ncnc(Nc3cccc(Cl)c3F)c2cc1OC(=O)c1ccccc1)c1ccccc1 [JGK004] | 23.4 | 103 | 
7 | C#Cc1cccc(Nc2ncnc3cc(OC(=O)c4ccccc4)c(OC(=O)c4ccccc4)cc23)c1 [JGK006] | 11 | 51.4 | 
8 | C#Cc1cccc(N(C(=O)CCCCOC(=O)CCCCOC(=O)CCCCOC(C)=O)c2ncnc3cc(OCCOC)c(OCCOC)cc23)c1 [JGK009] | 6.1 | 14.6 | 
9 | CC(=O)N(CCS(C)(=O)=O)Cc1ccc(-c2ccc3ncnc(N(C(C)=O)c4ccc(OCc5cccc(F)c5)c(Cl)c4)c3c2)o1 [JGK011] | 9.21 | 3.25 | 
10 | CC(=O)N(c1cccc(Cl)c1F)c1ncnc2cc3c(cc12)OCCO3 [JGK0012] | 5.48 | 10.8 | 
11 | COC1N=C(N(C(=O)OC(C)(C)C)c2cccc(Cl)c2F)c2cc3c(cc2N1C(=O)OC(C)(C)C)OCCO3 (stereo not drawn) [JGK013] | 1.55 | 220 | 
12 | COC(=O)[C@@H](Cc1ccc(Nc2ncnc3cc4c(cc23)OCCO4)cc1)NC(=O)OC(C)(C)C [JGK014] | 11.8 | 27.9 | 
13 | COC(=O)[C@H](Cc1ccc(Nc2ncnc3cc4c(cc23)OCCO4)cc1)NC(=O)OC(C)(C)C [JGK015] | 2.15 | 11.5 | 
14 | COC(=O)[C@@H](N)Cc1ccc(Nc2ncnc3cc4c(cc23)OCCO4)cc1 [JGK016] | 4.05 | 61.6 | 
15 | FC(F)(F)c1c(Cl)cccc1Nc1ncnc2cc3c(cc12)OCCO3 [JGK017] | 64.2 | 97.6 | 
16 | COc1cc2ncnc(Nc3cccc(Cl)c3F)c2cc1OC(C)=O [JGK018] | 1.07 | 4.54 | 
17 | COC(=O)[C@H](Cc1ccc(Nc2ncnc3cc(O)c(O)cc23)cc1)NC(=O)OC(C)(C)C [JGK020] | 29.2 | 36.2 | 
18 | N[C@H](Cc1ccc(Nc2ncnc3cc4c(cc23)OCCO4)cc1)C(=O)O [JGK021] | 481 | 556 | 
19 | Oc1cc2ncnc(Nc3cccc(Cl)c3F)c2cc1O [JGK022] | 31.1 | 150 | 
20 | N[C@@H](Cc1ccc(Nc2ncnc3cc4c(cc23)OCCO4)cc1)C(=O)O [JGK023] | 86.2 | 96.3 | 
21 | COC(=O)[C@H](Cc1ccc(NC(=O)COc2cc3c(Nc4cccc(Cl)c4F)ncnc3cc2OC)cc1)NC(=O)OC(C)(C)C [JGK024] | 156 | 125 | 
22 | Fc1ccc(Nc2ncnc3cc4c(cc23)OCCO4)c(F)c1 [JGK025] | 10.7 | 27.7 | 
23 | Fc1ccc(F)c(Nc2ncnc3cc4c(cc23)OCCO4)c1 [JGK026] | 6.12 | 16.5 | 
24 | Fc1cccc(F)c1Nc1ncnc2cc3c(cc12)OCCO3 [JGK027] | 5.81 | 11.8 | 

Row | Structure (SMILES) | GI50 (HK301) [µM] | GI50 (GBM39) [µM] | other results
25 | Fc1cc(F)c(Nc2ncnc3cc4c(cc23)OCCO4)c(F)c1 [JGK029] | 24.4 | 34 | 
26 | Fc1c(F)c(F)c(Nc2ncnc3cc4c(cc23)OCCO4)c(F)c1F [JGK030] | 559 | 961 | 
27 | Fc1ccccc1Nc1ncnc2cc3c(cc12)OCCO3 [JGK035, N-(2-Fluorophenyl)-7,8-dihydro[1,4]dioxino[2,3-g]quinazolin-4-amine] | 4.04 | 10.7 | 
28 | [2H]C1([2H])Oc2cc3ncnc(Nc4cccc(Cl)c4F)c3cc2OC1([2H])[2H] [JGK036, N-(3-Chloro-2-fluorophenyl)(7,7,8,8-^2H4)-7,8-dihydro[1,4]dioxino[2,3-g]quinazolin-4-amine] | 1.05 | 4.51 | 
29 | Fc1c(Nc2ncnc3cc4c(cc23)OCCO4)cccc1C(F)(F)F [JGK039, N-[2-Fluoro-3-(trifluoromethyl)phenyl]-7,8-dihydro[1,4]dioxino[2,3-g]quinazolin-4-amine] | 3.61 | 7.82 | 
30 | Fc1c(Cl)cccc1Nc1ncnc2cc3c(cc12)OCCCO3 [JGK040, N-(3-Chloro-2-fluorophenyl)-8,9-dihydro-7H-[1,4]dioxepino[2,3-g]quinazolin-4-amine] | 1.72 | 7.12 | 
31 | Fc1c(Cl)cccc1Nc1ncnc2cc3c(cc12)OCO3 [JGK041, N-(3-Chloro-2-fluorophenyl)-2H-[1,3]dioxolo[4,5-g]quinazolin-8-amine] | 1.66 | 6.04 | 
32 | CC(=O)OCN(c1cccc(Cl)c1F)c1ncnc2cc3c(cc12)OCCO3 [JGK043, [(3-Chloro-2-fluorophenyl)(7,8-dihydro[1,4]dioxino[2,3-g]quinazolin-4-yl)amino]methyl acetate] | 0.745 | 1.78 | 
33 | N#Cc1cccc(Nc2ncnc3cc4c(cc23)OCCO4)c1F [JGK044, 3-[(7,8-Dihydro[1,4]dioxino[2,3-g]quinazolin-4-yl)amino]-2-fluorobenzonitrile] | 4.52 | 5.63 | 
34 | N#Cc1cccc(Nc2ncnc3cc4c(cc23)OCCO4)c1 [JGK045, 3-[(7,8-Dihydro[1,4]dioxino[2,3-g]quinazolin-4-yl)amino]benzonitrile] | 3.94 | 10.9 | 
35 | Fc1c(Nc2ncnc3cc4c(cc23)OCCO4)ccc(Cl)c1Br [JGK053, N-(3-Bromo-4-chloro-2-fluorophenyl)-7,8-dihydro[1,4]dioxino[2,3-g]quinazolin-4-amine] | 2.78 | 5.28 | 
36 | Fc1c(Nc2ncnc3cc4c(cc23)OCCO4)ccc(Br)c1Br [JGK054, N-(3,4-Dibromo-2-fluorophenyl)-7,8-dihydro[1,4]dioxino[2,3-g]quinazolin-4-amine] | 5.72 | 7.7 | 
37 | Fc1ccc(Br)cc1Nc1ncnc2cc3c(cc12)OCCO3 [JGK055, N-(5-Bromo-2-fluorophenyl)-7,8-dihydro[1,4]dioxino[2,3-g]quinazolin-4-amine] | 0.29 | 0.966 | 
38 | Fc1ccc(Br)c(F)c1Nc1ncnc2cc3c(cc12)OCCO3 [JGK056, N-(3-Bromo-2,6-difluorophenyl)-7,8-dihydro[1,4]dioxino[2,3-g]quinazolin-4-amine] | 0.419 | 1.36 | 
39 | Fc1ccc(Nc2ncnc3cc4c(cc23)OCCO4)c(F)c1Br [JGK057, N-(3-Bromo-2,4-difluorophenyl)-7,8-dihydro[1,4]dioxino[2,3-g]quinazolin-4-amine] | 1.38 | 9.36 | 
40 | Fc1c(Br)cc(Cl)cc1Nc1ncnc2cc3c(cc12)OCCO3 [JGK058, N-(3-Bromo-5-chloro-2-fluorophenyl)-7,8-dihydro[1,4]dioxino[2,3-g]quinazolin-4-amine] | 1.85 | 13 | 
41 | Fc1c(Nc2ncnc3cc4c(cc23)OCCO4)ccc(Cl)c1Cl [JGK060, N-(3,4-Dichloro-2-fluorophenyl)-7,8-dihydro[1,4]dioxino[2,3-g]quinazolin-4-amine] | 2.95 | 3.5 | 
42 | Fc1cc(Br)c(F)c(Nc2ncnc3cc4c(cc23)OCCO4)c1 [JGK061, N-(3-Bromo-2,5-difluorophenyl)-7,8-dihydro[1,4]dioxino[2,3-g]quinazolin-4-amine] | 1.13 | 1.73 | 
43 | CN(C)C[C@H]1COc2cc3ncnc(Nc4cccc(Br)c4F)c3cc2O1 [JGK066S] | 0.301 | 2.63 | 
44 | Fc1c(Br)cccc1Nc1ncnc2c(F)c3c(cc12)OCCO3 [JGK071, N-(3-Bromo-2-fluorophenyl)-10-fluoro-7,8-dihydro[1,4]dioxino[2,3-g]quinazolin-4-amine] | 5.75 | 10.3 | 
45 | Fc1c(Br)cccc1Nc1ncnc2cc3c(c(F)c12)OCCO3 [JGK072, N-(3-Bromo-2-fluorophenyl)-5-fluoro-7,8-dihydro[1,4]dioxino[2,3-g]quinazolin-4-amine] | 5.02 | 12 | 
46 | Brc1cccc(Nc2ncnc3cc4c(cc23)OCCO4)c1 [JGK073] | 2.06 | 6.07 | 
47 | CN1CCN(CC2COc3cc4ncnc(Nc5cccc(Br)c5)c4cc3O2)CC1 (stereo not drawn) [JGK074] | 2.28 | 6.67 | Kp [2]: 1.66
48 | OC[C@H]1COc2cc3ncnc(Nc4cccc(Br)c4F)c3cc2O1 [JGK082S] | 1.67 | 1.89 | 
